The text below walks through data of US20150291565A1, “INDOLE COMPOUNDS AND THEIR USE AS ANTIMICROBIALS” (Memorial Sloan-Kettering Cancer Center, priority 2012, published 2015).

Values joined by “and” are separate entries in the source; they are usually repeats but may differ in a detail not shown here. Equal entries are not always repeated.

The test system of test [1] is S. aureus (MRSA) (ATCC33591). Description: Septicemia survival model in neutropenic CD1 mice, MRSA. Type of test: in vivo. The settings on record: 100 mg/kg BID SC.
Test [2] deals with methicillin-resistant S. aureus (ATCC 33591). Description: Thigh infection model in neutropenic CD1 mice, MRSA. The settings on record: 100 mg/kg BID SC, 24 hours.
In test [3] the test system is S. pneumoniae (ATCC 6303). Briefly: Thigh infection model in neutropenic CD1 mice, S. pneumoniae. The settings on record: 100 mg/kg BID SC, 24 hours; for Log reduction: vs vehicle, 100 mg/kg.

As to `CN[C@H](CC(C)C)C(=O)N[C@H]1C(=O)N[C@@H](CC(N)=O)C(=O)N[C@H]2C(=O)N[C@H]3C(=O)N[C@H](C(=O)N[C@H](C(=O)O)c4cc(O)cc(O)c4-c4cc3ccc4O)[C@H](O)c3ccc(c(Cl)c3)Oc3cc2cc(c3O[C@@H]2O[C@H](CO)[C@@H](O)[C@H](O)[C@H]2O[C@H]2C[C@](C)(N)[C@H](O)[C@H](C)O2)Oc2ccc(cc2Cl)[C@H]1O` [Vancomycin, reference compound], in test [1], the “Percent Survival Day 1” value was 100%, the “Percent Survival Day 2” value was found to be 100%, the “Percent Survival Day 3” value was determined as 100% and the “Percent Survival Day 4” value stood at 80%. In test [1], the “Percent Survival Day 5” value was 80%, the “Percent Survival Day 6” value came to 80% and the “Percent Survival Day 7” value was 80%. Moreover, the “Mean bacterial tissue burden (log10/thigh)” value in test [2] was 5.0033 log10/thigh. Moreover, the Log reduction in test [2] (vs vehicle, 100 mg/kg) was 3.45 Log and 3.4455 Log. Besides, in test [3], the “Mean bacterial tissue burden (log10/thigh)” value was 3.4862 log10/thigh and the Log reduction is on record as 5.6265 Log. The compound also returned a Log reduction in test [3] (listed as vancomycin) of 5.63 Log.
